3 compounds from ChEMBL document CHEMBL1130996, “A depsipeptide fungal metabolite inhibitor of cholesteryl ester transfer protein” (Bioorg Med Chem Lett, 1998) can be followed below.

One may read the IC50 as the concentration at which inhibition is half-maximal.

Experiment [1] has as its target T1, Cholesteryl ester transfer protein (Homo sapiens, UniProt P11597).
T1 sequence (P11597 whole entry): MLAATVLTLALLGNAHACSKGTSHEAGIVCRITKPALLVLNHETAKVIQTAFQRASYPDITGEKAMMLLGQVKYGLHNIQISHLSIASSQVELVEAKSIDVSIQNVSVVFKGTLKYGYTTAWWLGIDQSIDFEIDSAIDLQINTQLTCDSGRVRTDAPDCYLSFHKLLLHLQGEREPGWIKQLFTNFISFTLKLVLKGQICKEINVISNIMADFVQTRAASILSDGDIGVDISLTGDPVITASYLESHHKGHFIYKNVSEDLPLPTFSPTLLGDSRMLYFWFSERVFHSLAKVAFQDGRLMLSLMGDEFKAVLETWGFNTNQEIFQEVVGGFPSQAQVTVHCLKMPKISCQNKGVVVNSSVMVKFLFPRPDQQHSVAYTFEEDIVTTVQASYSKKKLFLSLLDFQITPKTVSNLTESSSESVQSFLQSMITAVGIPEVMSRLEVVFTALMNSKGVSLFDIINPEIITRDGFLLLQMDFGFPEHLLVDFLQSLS
The experiment can be described thus: Compound was evaluated for inhibitory activity against cholesteryl ester transfer protein, reported from fungus. Also on record: species or system Fungi.

The target in experiment [2] is T1, Cholesteryl ester transfer protein. The experiment can be described thus: Compound was evaluated for inhibitory activity against cholesteryl ester transfer protein, reported from sponge.
The target is the same in experiment [3]. The experiment can be described thus: Compound was evaluated for inhibitory activity against cholesteryl ester transfer protein.
Experiment [4] shares this target. Nature of the experiment: Compound was evaluated for inhibitory activity against cholesteryl ester transfer protein-SPA assay; Inactive.
For experiment [5] the target is unchanged. Nature of the experiment: Compound was evaluated for inhibitory activity against cholesteryl ester transfer protein; Inactive.

Turning to `CCCCC(C)C1CC(=O)N[C@@H](Cc2ccccc2)C(=O)N[C@@H](C)C(=O)N[C@@H](CC(C)C)C(=O)O1` (stereo not given in full), the IC50 in experiment [1] was found to be 40 µM; in experiment [2], 0.3 µM; in experiment [3], 50 µM. As for `CCCCC(C)C(O)CC(=O)N[C@@H](Cc1ccccc1)C(=O)N[C@@H](C)C(=O)N[C@@H](CC(C)C)C(=O)O` (stereo not given in full), the IC50 entry in experiment [4] is reported as “Not Active”. For the compound `CCCCC(C)/C=C/C(=O)N[C@@H](Cc1ccccc1)C(=O)N[C@@H](C)C(=O)N[C@@H](CC(C)C)C(=O)O` (stereo not given in full), the IC50 entry in experiment [5] was “Not Active”.
